The test system of test [1] is Cabbage Looper (Trichoplusia ni, TRIPNI). Description: Bioassay on Cabbage Looper (CL), 128-well diet tray assay. Format: in vivo. The note with it: Trichoplusia ni; Species CL (Cabbage Looper); read-out: CL (Biological Results, rating). The procedure: (§1) Certain molecules disclosed in this document were tested against BAW and CL using procedures described in the following examples. In the reporting of the results, the “BAW & CL Rating Table” was used (See Table Section).
Bioassays on CL were conducted using a 128-well diet tray assay. one to five second instar CL larvae were placed in each well (3 mL) of the diet tray that had been previously filled with 1 mL of artificial diet to which 50 μg/cm^2 of the test molecule (dissolved in 50 μL of 90:10 acetone-water mixture) had been applied (to each of eight wells) and then allowed to dry. Trays were covered with a clear self-adhesive cover, vented to allow gas exchange, and held at 25° C., 14:10 light-dark for five to seven days. Percent mortality was recorded for the larvae in each well; activity in the eight wells was then averaged. The results are indicated in the table entitled “Table ABC: Biological Results” (See Table Section).

Test [2] has as its system Beet Armyworm (Spodoptera exigua, LAPHEG). Description: Bioassay on Beet Armyworm (BAW), 128-well diet tray assay. The following applies: Species BAW (Beet Armyworm), read-out: BAW (Biological Results, rating). Format: in vivo. As for the experimental part: as §1
Bioassays on BAW were conducted using a 128-well diet tray assay. One to five second instar BAW larvae were placed in each well (3 mL) of the diet tray that had been previously filled with approximately 1.5 mL of artificial diet to which 50 μg/cm^2 of the test molecule (dissolved in 50 μL of 90:10 acetone-water mixture) had been applied (to each of eight wells) and then allowed to dry. Trays were covered with a clear self-adhesive cover, vented to allow gas exchange, and held at 25° C., 14:10 light-dark for five to seven days. Percent mortality was recorded for the larvae in each well; activity in the eight wells was then averaged. The results are indicated in the table entitled “Table ABC: Biological Results” (See Table Section).

Results on 17 molecules are retold here after patent US10219516B2, “Molecules having pesticidal utility, and intermediates, compositions, and processes, related thereto” (priority 2015, dated 2019).

As for `O=C(Nc1ccc(F)cc1)c1cc(NC(=O)[C@H]2[C@H](c3cc(Cl)cc(Cl)c3)C2(Cl)Cl)c(F)cc1Cl` (relative stereo) [F48, trans-2-Chloro-5-(2,2-dichloro-3-(3,5-dichlorophenyl)cyclopropane-1-carboxamido)-4-fluoro-N-(4-fluorophenyl)benzamide], the pest or weed control at 50 µg/cm2 in test [1] and in test [2] was 50 to 100% each time.
Turning to `CN(C(=O)c1cc(NC(=O)[C@H]2[C@H](c3cc(Cl)c(Cl)c(Cl)c3)C2(Cl)Cl)ccc1F)c1ccc(F)cc1` (relative stereo) [F60, trans-5-(2,2-dichloro-3-(3,4,5-trichlorophenyl)cyclopropane-1-carboxamido)-2-fluoro-N-(4-fluorophenyl)-N-methylbenzamide], the pest or weed control at 50 µg/cm2 in test [1] and in test [2] was 50 to 100% each time.
In the case of `O=C(Nc1ccc(F)cc1)c1cc(NC(=O)[C@H]2[C@H](c3cc(Cl)c(Br)c(Cl)c3)C2(Cl)Cl)ccc1Cl` (relative stereo) [F72, trans-5-(3-(4-Bromo-3,5-dichlorophenyl)-2,2-dichlorocyclopropane-1-carboxamido)-2-chloro-N-(4-fluorophenyl)benzamide], the pest or weed control at 50 µg/cm2 in test [1] and in test [2] was 50 to 100% in each case.
Regarding `O=C(Nc1ccc(F)cc1)c1cc(NC(=O)[C@H]2[C@H](c3cc(Cl)c(Cl)cc3Cl)C2(Cl)Cl)ccc1Cl` (relative stereo) [F73, trans-2-Chloro-5-(2,2-dichloro-3-(2,4,5-trichlorophenyl)cyclopropane-1-carboxamido)-N-(4-fluorophenyl)benzamide], the pest or weed control at 50 µg/cm2 in test [1] and in test [2] was 50 to 100% throughout.
Turning to `O=C(Nc1ccccn1)c1cc(NC(=O)[C@H]2[C@H](c3cc(Cl)cc(Cl)c3)C2(Cl)Cl)ccc1Cl` (relative stereo) [F78, trans-2-Chloro-5-(2,2-dichloro-3-(3,5-dichlorophenyl)cyclopropane-1-carboxamido)-N-(pyridin-2-yl)benzamide], the pest or weed control at 50 µg/cm2 in test [1] and in test [2] was 50 to 100% each time.
For `O=C(Nc1ccc(F)cc1)c1cc(NC(=O)[C@H]2[C@H](c3cc(C(F)(F)F)cc(C(F)(F)F)c3)C2(Cl)Cl)ccc1Cl` (relative stereo) [F84, trans-5-(3-(3,5-Bis(trifluoromethyl)phenyl)-2,2-dichlorocyclopropane-1-carboxamido)-2-chloro-N-(4-fluorophenyl)benzamide], the pest or weed control at 50 µg/cm2 in test [1] and in test [2] was 50 to 100% throughout.
As to `O=C(Nc1c(F)cccc1F)c1cc(NC(=O)[C@H]2[C@H](c3cc(C(F)(F)F)cc(C(F)(F)F)c3)C2(Cl)Cl)ccc1Cl` (relative stereo) [F86, trans-5-(3-(3,5-Bis(trifluoromethyl)phenyl)-2,2-dichlorocyclopropane-1-carboxamido)-2-chloro-N-(2,6-difluorophenyl)benzamide], the pest or weed control at 50 µg/cm2 in test [1] and in test [2] was 50 to 100% in each case.
Regarding `O=C(Nc1c(F)cccc1F)c1cc(NC(=O)[C@H]2[C@H](c3cc(Cl)cc(C(F)(F)F)c3)C2(Cl)Cl)ccc1Cl` (relative stereo) [F89, trans-2-Chloro-5-(2,2-dichloro-3-(3-chloro-5-(trifluoromethyl)phenyl)cyclopropane-1-carboxamido)-N-(2,6-difluorophenyl)benzamide], the pest or weed control at 50 µg/cm2 in test [1] and in test [2] was 50 to 100% each time.
Consider `O=C(Nc1ccc(F)cc1)c1cc(NC(=O)[C@H]2[C@H](c3cc(Br)cc(Br)c3)C2(Cl)Cl)ccc1Cl` (relative stereo) [F90, trans-2-Chloro-5-(2,2-dichloro-3-(3,5-dibromophenyl)cyclopropane-1-carboxamido)-N-(4-fluorophenyl)benzamide], for which the pest or weed control at 50 µg/cm2 in test [1] and in test [2] was 50 to 100% each time.
On to `O=C(Nc1c(F)cccc1F)c1cc(NC(=O)[C@H]2[C@H](c3cc(Br)cc(Br)c3)C2(Cl)Cl)ccc1Cl` (relative stereo) [F92, trans-2-Chloro-5-(2,2-dichloro-3-(3,5-dibromophenyl)cyclopropane-1-carboxamido)-N-(2,6-difluorophenyl)benzamide], for which the pest or weed control at 50 µg/cm2 in test [1] and in test [2] was 50 to 100% each time.
On to `N#Cc1ccc(NC(=O)c2cc(NC(=O)[C@H]3[C@H](c4cc(Cl)cc(Cl)c4)C3(Cl)Cl)ccc2F)c(F)c1` (relative stereo) [F93, trans-N-(4-Cyano-2-fluorophenyl)-5-(2,2-dichloro-3-(3,5-dichlorophenyl)cyclopropane-1-carboxamido)-2-fluorobenzamide], for which the pest or weed control at 50 µg/cm2 in test [1] and in test [2] was 50 to 100% in each case.
For `N#Cc1ccc(NC(=O)c2cc(NC(=O)[C@H]3[C@H](c4ccc(Cl)c(Cl)c4)C3(Cl)Cl)ccc2F)c(F)c1` (relative stereo) [F94, trans-N-(4-Cyano-2-fluorophenyl)-5-(2,2-dichloro-3-(3,4-dichlorophenyl)cyclopropane-1-carboxamido)-2-fluorobenzamide], the pest or weed control at 50 µg/cm2 in test [1] and in test [2] was 50 to 100% in each case.
As for `N#Cc1ccc(NC(=O)c2cc(NC(=O)[C@H]3[C@H](c4cc(Cl)c(Cl)c(Cl)c4)C3(Cl)Cl)ccc2F)c(F)c1` (relative stereo) [F95, trans-N-(4-Cyano-2-fluorophenyl)-5-(2,2-dichloro-3-(3,4,5-trichlorophenyl)cyclopropane-1-carboxamido)-2-fluorobenzamide], the pest or weed control at 50 µg/cm2 in test [1] and in test [2] was 50 to 100% throughout.
Regarding `CN(C(=O)c1cc(NC(=O)[C@H]2[C@H](c3cc(Cl)c(F)c(Cl)c3)C2(Cl)Cl)ccc1Cl)c1ccc(F)cc1` (relative stereo) [F97, trans-2-Chloro-5-(2,2-dichloro-3-(3,5-dichloro-4-fluorophenyl)cyclopropane-1-carboxamido)-N-(4-fluorophenyl)-N-methylbenzamide], the pest or weed control at 50 µg/cm2 in test [1] and in test [2] was 50 to 100% each time.
Regarding `O=C(Nc1c(F)cccc1F)c1cc(NC(=O)[C@H]2[C@H](c3cc(Cl)c(F)c(Cl)c3)C2(Cl)Cl)ccc1Cl` (relative stereo) [F98, trans-2-Chloro-5-(2,2-dichloro-3-(3,5-dichloro-4-fluorophenyl)cyclopropane-1-carboxamido)-N-(2,6-difluorophenyl)benzamide], the pest or weed control at 50 µg/cm2 in test [1] and in test [2] was 50 to 100% throughout.
With `C=CCN(C(=O)c1cc(NC(=O)[C@H]2[C@H](c3cc(Cl)cc(Cl)c3)C2(Cl)Cl)ccc1Cl)c1ccc(F)cc1` (relative stereo) [F102, trans-N-Allyl-2-chloro-5-(2,2-dichloro-3-(3,5-dichlorophenyl)cyclopropane-1-carboxamido)-N-(4-fluorophenyl)benzamide], the pest or weed control at 50 µg/cm2 in test [1] and in test [2] was 50 to 100% throughout.
`N#Cc1ccc(NC(=O)c2cc(NC(=O)[C@H]3[C@H](c4ccc(Cl)c(Cl)c4)C3(Cl)Cl)ccc2Cl)c(F)c1` (relative stereo) [F103, trans-2-chloro-N-(4-cyano-2-fluorophenyl)-5-(2,2-dichloro-3-(3,4-dichlorophenyl)cyclopropane-1-carboxamido)benzamide]: the pest or weed control at 50 µg/cm2 in test [1] and in test [2] was 50 to 100% throughout.
